Experimental data from patent US8106031B2, “Hydrolytically-resistant boron-containing therapeutics and methods of use” (Anacor Pharmaceuticals, Inc., priority 2006, dated 2012).
Values after ≈ are worked out from the molar mass of the structure shown. Read-outs that look alike come from different tables or passages of the source.

Columns and labels:
Trichophyton rubrum = test: MIC against T. rubrum (NCCLS broth dilution); type: cell-based; conditions: for MIC: Trichophyton rubrum, read-out: Minimum inhibitory concentration, T. rubrum
Description: (§1) To determine the antifungal activity of these compounds we screened for their minimum inhibitory concentrations (MIC) against the major dermatophytes that cause onychomycosis, T. rubrum and T. mentagrophytes, and against the yeasts and molds C. albicans, C. neoformans and A. fumigatus to test for their broad spectrum activity. The antifungal agent ciclopirox, currently in use for the topical treatment of onychomycosis, was used as a reference.
(§2) All MIC testing against Trichophyton rubrum, Trichophyton mentagrophytes, Candida albicans, Cryptococcus neoformans and Aspergillus fumigatus were determined following the National Committee for Clinical Laboratory Standards (NCCLS) guidelines for antimicrobial testing of yeasts and filamentous fungi.^i,ii
(§3) Two-fold serial dilutions of the test compounds were prepared in 96-well plates. […] Pfaller M A, Chaturvedi V, Espinel-Ingroff A, Ghannoum M A, Gosey L L, Odds F C, Rex J H, Rinaldi M G, Sheehan D J, Walsh T J, Warnock D W. NCCLS publication M27-A2—Reference Method for Broth Dilution Antifungal Susceptibility Testing of Yeasts; Approved Standard—Second Edition. […] Pfaller M A, Chaturvedi V, Espinel-Ingroff A, Ghannoum M A, Gosey L L, Odds F C, Rex J H, Rinaldi M G, Sheehan D J, Walsh T J, Warnock D W. NCCLS publication M38-A—Reference Method for Broth Dilution Antifungal Susceptibility Testing of Filamentous Fungi; Approved Standard.

[1] = test system: Trichophyton mentagrophytes; test: MIC against T. mentagrophytes (NCCLS broth dilution); type: cell-based; conditions: for MIC: Trichophyton mentagrophytes, read-out: Minimum inhibitory concentration, T. mentagrophytes
Description: as §1, §2, §3

Candida albicans = test: MIC against C. albicans (NCCLS broth dilution); type: cell-based; conditions: for MIC: Candida albicans, read-out: Minimum inhibitory concentration, C. albicans
Description: as §1, §2, §3

Cryptococcus neoformans = test: MIC against C. neoformans (NCCLS broth dilution); type: cell-based; conditions: for MIC: Cryptococcus neoformans, read-out: Minimum inhibitory concentration, C. neoformans
Description: as §1, §2, §3

Aspergillus fumigatus = test: MIC against A. fumigatus (NCCLS broth dilution); type: cell-based; conditions: for MIC: Aspergillus fumigatus, read-out: Minimum inhibitory concentration, A. fumigatus
Description: as §1, §2, §3

[2] = test system: T. rubrum, T. mentagrophytes, C. albicans, C. neoformans and A. fumigatus; test: MIC against the panel of fungi tested; type: cell-based; conditions: for fold less active than the corresponding oxaborole: 6-membered oxaborin vs 5-membered oxaborole (23a vs 9a, 23b vs 9b, 24 vs 19b); for fold increase in potency: 5-fluoro compound relative to its R^i = H analog (9b vs 9a, 10b vs 10a), strains tested
Description: MIC, or minimum inhibitory concentration, is the point where compound stops more than 90% of cell growth relative to an untreated control.
as §1, §2
Briefly, compounds were dissolved in DMSO and diluted in sterile water to give a working stock. Two-fold serial dilutions of the test compounds were prepared in 96-well plates. The plates were inoculated with the fungal suspensions to give a final inoculum size of 0.5−2.5×10^3 cells/mL for yeasts or 0.4−5×10^4 CFU/mL for filamentous fungi and then incubated for 24-168 h at 35° C. […] Pfaller M A, Chaturvedi V, Espinel-Ingroff A, Ghannoum M A, Gosey L L, Odds F C, Rex J H, Rinaldi M G, Sheehan D J, Walsh T J, Warnock D W. NCCLS publication M27-A2—Reference Method for Broth Dilution Antifungal Susceptibility Testing of Yeasts; Approved Standard—Second Edition. Wayne, P A: NCCLS; 2002 (Vol. 22, No. 15). • ii. Pfaller M A, Chaturvedi V, Espinel-Ingroff A, Ghannoum M A, Gosey L L, Odds F C, Rex J H, Rinaldi M G, Sheehan D J, Walsh T J, Warnock D W. NCCLS publication M38-A—Reference Method for Broth Dilution Antifungal Susceptibility Testing of Filamentous Fungi; Approved Standard. Wayne, P A: NCCLS; 2002 (Vol. 22, No. 16).

[3] = Table 1, over 90% reduction of growth, 24-168 h at 35° C.
[4] = 24 h, Table 1, over 90% reduction of growth, 24-168 h at 35° C.

Row | Compound | MIC (Trichophyton rubrum; [3]) [mg/L] | MIC [1, 3] [mg/L] | MIC (Candida albicans; [3]) [mg/L] | MIC (Cryptococcus neoformans; [3]) [mg/L] | MIC (Aspergillus fumigatus; [3]) [mg/L] | melting point [°C] | MIC (Trichophyton rubrum; Table 2, 1-phenyl series (9)) [mg/L] | MIC ([1]; Table 2, 1-phenyl series (9)) [mg/L] | MIC (Candida albicans; Table 2, 1-phenyl series (9)) [mg/L] | MIC (Cryptococcus neoformans; Table 2, 1-phenyl series (9)) [mg/L] | MIC (Aspergillus fumigatus; Table 2, 1-phenyl series (9)) [mg/L] | also measured
1 | 6-Fluoro-1-phenyl-1,2,3,4-tetrahydro-2,1-benzoxaborine [23a] | – | – | – | – | – | – | – | – | – | – | – | Minimum inhibitory concentration, T. rubrum (Trichophyton rubrum; [3]): 8 mg/L; Minimum inhibitory concentration, T. mentagrophytes [1, 3]: 8 mg/L; Minimum inhibitory concentration, C. albicans (Candida albicans; [3]): 8 mg/L; Minimum inhibitory concentration, C. neoformans (Cryptococcus neoformans; [3]): 16 mg/L; Minimum inhibitory concentration, A. fumigatus (Aspergillus fumigatus; [3]): 16 mg/L; fold less active than the corresponding oxaborole [2]: approximately 2 fold
2 | c1ccc(B2OCc3ccccc32)cc1 [9a, 1,3-Dihydro-1-phenyl-2,1-benzoxaborole] | 4 (≈ 20.6 µM) | 4 (≈ 20.6 µM) | 4 (≈ 20.6 µM) | 8 (≈ 41.2 µM) | 4 (≈ 20.6 µM) | – | – | – | – | – | – | Minimum inhibitory concentration, T. rubrum (Trichophyton rubrum; Table 2, 1-phenyl series (9)): 4 mg/L (≈ 20.6 µM); Minimum inhibitory concentration, T. mentagrophytes ([1]; Table 2, 1-phenyl series (9)): 4 mg/L (≈ 20.6 µM); Minimum inhibitory concentration, C. albicans (Candida albicans; Table 2, 1-phenyl series (9)): 4 mg/L (≈ 20.6 µM); Minimum inhibitory concentration, C. neoformans (Cryptococcus neoformans; Table 2, 1-phenyl series (9)): 8 mg/L (≈ 41.2 µM); Minimum inhibitory concentration, A. fumigatus (Aspergillus fumigatus; Table 2, 1-phenyl series (9)): 4 mg/L (≈ 20.6 µM); MIC values, range over the strains tested ([2]; all five fungi): 4 to 8 mg/L
3 | Fc1ccc2c(c1)COB2c1ccccc1 [9b, 1,3-Dihydro-5-fluoro-1-phenyl-2,1-benzoxaborole] | 1 (≈ 4.72 µM) | 2 (≈ 9.43 µM) | 0.5 (≈ 2.36 µM) | 2 (≈ 9.43 µM) | 2 (≈ 9.43 µM) | 90 to 99 | – | – | – | – | – | Minimum inhibitory concentration, T. rubrum (Trichophyton rubrum; Table 2, 1-phenyl series (9)): 1 mg/L (≈ 4.72 µM); Minimum inhibitory concentration, T. mentagrophytes ([1]; Table 2, 1-phenyl series (9)): 2 mg/L (≈ 9.43 µM); Minimum inhibitory concentration, C. albicans (Candida albicans; Table 2, 1-phenyl series (9)): 0.5 mg/L (≈ 2.36 µM); Minimum inhibitory concentration, C. neoformans (Cryptococcus neoformans; Table 2, 1-phenyl series (9)): 2 mg/L (≈ 9.43 µM); Minimum inhibitory concentration, A. fumigatus (Aspergillus fumigatus; Table 2, 1-phenyl series (9)): 2 mg/L (≈ 9.43 µM); fold increase in potency [2]: 2-8 fold
4 | Fc1ccc(B2OCc3ccccc32)cc1 [9e, 1,3-Dihydro-1-(4-fluorophenyl)-2,1-benzoxaborole] | – | – | – | – | – | 53 to 55 | 8 (≈ 37.7 µM) | 4 (≈ 18.9 µM) | 4 (≈ 18.9 µM) | 2 (≈ 9.43 µM) | 2 (≈ 9.43 µM) | –
5 | Fc1ccc2c(c1)COB2c1cccc(Cl)c1 [9f, 1-(3-Chlorophenyl)-1,3-dihydro-5-fluoro-2,1-benzoxaborole] | – | – | – | – | – | 112 to 114 | 4 (≈ 16.2 µM) | 8 (≈ 32.5 µM) | 0.25 (≈ 1.01 µM) | 0.5 (≈ 2.03 µM) | 2 (≈ 8.11 µM) | –
6 | Fc1cccc(B2OCc3cc(F)ccc32)c1 [9g, 1,3-Dihydro-5-fluoro-1-(3-fluorophenyl)-2,1-benzoxaborole] | – | – | – | – | – | 80 to 82 | 1 (≈ 4.35 µM) | 2 (≈ 8.69 µM) | 0.5 (≈ 2.17 µM) | 1 (≈ 4.35 µM) | 1 (≈ 4.35 µM) | –
7 | Fc1ccc(B2OCc3cc(F)ccc32)cc1 [9h, 1,3-Dihydro-5-fluoro-1-(4-fluorophenyl)-2,1-benzoxaborole] | – | – | – | – | – | 75 to 77 | 4 (≈ 17.4 µM) | 4 (≈ 17.4 µM) | 1 (≈ 4.35 µM) | 1 (≈ 4.35 µM) | 2 (≈ 8.69 µM) | –
8 | Cc1cccc(B2OCc3cc(F)ccc32)c1 [9i, 1,3-Dihydro-5-fluoro-1-(3-methylphenyl)-2,1-benzoxaborole] | – | – | – | – | – | 48 to 49 | 2 (≈ 8.85 µM) | 4 (≈ 17.7 µM) | 1 (≈ 4.42 µM) | 0.5 (≈ 2.21 µM) | 0.5 (≈ 2.21 µM) | –
9 | Cc1ccc(B2OCc3cc(F)ccc32)cc1 [9j, 1,3-Dihydro-5-fluoro-1-(4-methylphenyl)-2,1-benzoxaborole] | – | – | – | – | – | 48 to 49 | 2 (≈ 8.85 µM) | 2 (≈ 8.85 µM) | 0.5 (≈ 2.21 µM) | 0.5 (≈ 2.21 µM) | 0.5 (≈ 2.21 µM) | –
10 | C(=Cc1ccccc1)B1OCc2ccccc21 [10a, 1,3-Dihydro-1-styryl-2,1-benzoxaborole] | 8 (≈ 36.4 µM) | 8 (≈ 36.4 µM) | 2 (≈ 9.09 µM) | 4 (≈ 18.2 µM) | 4 (≈ 18.2 µM) | 57 to 59 | – | – | – | – | – | –
11 | Fc1ccc2c(c1)COB2C=Cc1ccccc1 [10b, 1,3-Dihydro-5-fluoro-1-styryl-2,1-benzoxaborole] | ≤ 1 | 2 (≈ 8.4 µM) | 0.5 (≈ 2.1 µM) | 0.5 (≈ 2.1 µM) | 1 (≈ 4.2 µM) | 84 to 86 | – | – | – | – | – | fold increase in potency [2]: 4-8 fold
12 | CC1OB(O)c2ccc(F)cc21 (stereo not shown) [19c, 1,3-Dihydro-5-fluoro-1-hydroxy-3-methyl-2,1-benzoxaborolane] | – | – | – | – | – | – | – | – | – | – | – | Minimum inhibitory concentration, T. rubrum (Trichophyton rubrum; [3]): 32 mg/L (≈ 193 µM); Minimum inhibitory concentration, T. mentagrophytes [1, 3]: 16 mg/L (≈ 96.4 µM); Minimum inhibitory concentration, C. albicans (Candida albicans; [3]): 16 mg/L (≈ 96.4 µM); Minimum inhibitory concentration, C. neoformans (Cryptococcus neoformans; [3]): 32 mg/L (≈ 193 µM); Minimum inhibitory concentration, A. fumigatus (Aspergillus fumigatus; [3]): 16 mg/L (≈ 96.4 µM); fold decrease in activity ([2]; 3-methyl compound relative to 19b): 8-32 fold
13 | c1ccc(B2OCCc3ccccc32)cc1 [23b, 1-Phenyl-1,2,3,4-tetrahydro-2,1-benzoxaborine] | – | – | – | – | – | – | – | – | – | – | – | MIC (Trichophyton rubrum; [4]): 8 mg/L (≈ 38.4 µM); MIC [1, 4]: 8 mg/L (≈ 38.4 µM); MIC (Candida albicans; [4]): 8 mg/L (≈ 38.4 µM); MIC (Cryptococcus neoformans; [4]): 8 mg/L (≈ 38.4 µM); MIC (Aspergillus fumigatus; [4]): 8 mg/L (≈ 38.4 µM); fold less active than the corresponding oxaborole [2]: 4-16 fold
14 | C=CB1OCc2cc(F)ccc21 [compound 11, 1,3-Dihydro-5-fluoro-1-vinyl-2,1-benzoxaborole] | 4 (≈ 24.7 µM) | 2 (≈ 12.3 µM) | 1 (≈ 6.17 µM) | 4 (≈ 24.7 µM) | 2 (≈ 12.3 µM) | – | – | – | – | – | – | –
15 | Fc1ccc2c(c1)COB2c1ccoc1 [compound 12, 1,3-Dihydro-5-fluoro-1-(furan-3-yl)-2,1-benzoxaborole] | 4 (≈ 19.8 µM) | 4 (≈ 19.8 µM) | 4 (≈ 19.8 µM) | 4 (≈ 19.8 µM) | 4 (≈ 19.8 µM) | – | – | – | – | – | – | –
16 | Fc1ccc2c(c1)COB2c1ccsc1 [compound 13, 1,3-Dihydro-5-fluoro-1-(thiophen-3-yl)-2,1-benzoxaborole] | 1 (≈ 4.59 µM) | 4 (≈ 18.3 µM) | 1 (≈ 4.59 µM) | 1 (≈ 4.59 µM) | 1 (≈ 4.59 µM) | 33 to 35 | – | – | – | – | – | –
17 | Cc1cscc1B1OCc2cc(F)ccc21 [compound 14, 1,3-Dihydro-5-fluoro-1-(4-methylthiophen-3-yl)-2,1-benzoxaborole] | 1 (≈ 4.31 µM) | 2 (≈ 8.62 µM) | 1 (≈ 4.31 µM) | 1 (≈ 4.31 µM) | 1 (≈ 4.31 µM) | 51 to 53 | – | – | – | – | – | –
18 | Fc1ccc2c(c1)COB2c1cccnc1 [compound 15, 3-(1,3-Dihydro-5-fluoro-2,1-benzoxaborol-1-yl)pyridine] | 16 (≈ 75.1 µM) | 32 (≈ 150 µM) | 4 (≈ 18.8 µM) | 16 (≈ 75.1 µM) | 16 (≈ 75.1 µM) | 210 to 212 | – | – | – | – | – | change in activity against C. albicans (Candida albicans; relative to 9b, in words): no change in activity; fold decrease in activity against the dermatophytes ([2]; T. rubrum and T. mentagrophytes, relative to 9b): 16-64 fold; fold reduction in activity against C. neoformans and A. fumigatus ([2]; relative to 9b): 4 fold
19 | OB1OCCc2cc(F)ccc21 [compound 24, 6-Fluoro-1-hydroxy-1,2,3,4-tetrahydro-2,1-benzoxaborine] | 32 (≈ 193 µM) | 32 (≈ 193 µM) | 64 (≈ 386 µM) | > 64 | 32 (≈ 193 µM) | – | – | – | – | – | – | fold less active than the corresponding oxaborole [2]: 32-256 fold
